The text below walks through data of ChEMBL document CHEMBL1201862, “PubChem BioAssay data set” (2004).

The source made the active and inactive calls.

The target in data set [1] is T1, Calpain-2 catalytic subunit (Sus scrofa, UniProt P43367).
T1 sequence (P43367 whole entry): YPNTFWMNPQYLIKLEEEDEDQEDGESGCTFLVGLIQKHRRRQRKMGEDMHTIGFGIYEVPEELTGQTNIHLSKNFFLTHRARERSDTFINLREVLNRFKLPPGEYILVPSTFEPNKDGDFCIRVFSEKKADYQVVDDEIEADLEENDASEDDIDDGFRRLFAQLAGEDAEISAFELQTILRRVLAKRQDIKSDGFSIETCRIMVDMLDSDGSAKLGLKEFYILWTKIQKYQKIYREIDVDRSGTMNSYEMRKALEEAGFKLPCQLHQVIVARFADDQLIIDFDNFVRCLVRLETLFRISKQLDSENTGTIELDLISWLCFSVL
The experiment in a line: m-calpain protease blockers, concentration series – biochemical, fluorogenic peptide substrate, dose response (AID 1420). In kind it is functional.

In data set [2] the test system is P388/ADR. The experiment in a line: cells. Format: functional. The note with it: Mus musculus.
Data set [3] deals with SN12K1. The experiment in a line: cells. In kind it is functional. Conditions: Homo sapiens.
Data set [4] concerns P388. As to the kind of experiment: cells. In kind it is functional. The note with it: Mus musculus.
For data set [5], the target named is Cytochrome P450 2C19 (Homo sapiens, UniProt P33261). As to the kind of experiment: Cytochrome panel assay with activity outcomes. Panel member name: p450-cyp2c19 Compounds with AC50 equal or less than 10 uM are considered active. In kind it is functional.
Data set [6] deals with Cytochrome P450 2D6 (Homo sapiens, UniProt P10635).
Data set [7] has as its target Cytochrome P450 3A4 (Homo sapiens, UniProt P08684).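 Also: CYP3A4 tested as one member of a cytochrome P450 panel screen.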
For data set [8], the target named is T2, Cytochrome P450 1A2 (Homo sapiens, UniProt P05177).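 Also: PubChem cytochrome P450 panel assay, CYP1A2 panel member.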
T2 sequence (P05177 whole entry): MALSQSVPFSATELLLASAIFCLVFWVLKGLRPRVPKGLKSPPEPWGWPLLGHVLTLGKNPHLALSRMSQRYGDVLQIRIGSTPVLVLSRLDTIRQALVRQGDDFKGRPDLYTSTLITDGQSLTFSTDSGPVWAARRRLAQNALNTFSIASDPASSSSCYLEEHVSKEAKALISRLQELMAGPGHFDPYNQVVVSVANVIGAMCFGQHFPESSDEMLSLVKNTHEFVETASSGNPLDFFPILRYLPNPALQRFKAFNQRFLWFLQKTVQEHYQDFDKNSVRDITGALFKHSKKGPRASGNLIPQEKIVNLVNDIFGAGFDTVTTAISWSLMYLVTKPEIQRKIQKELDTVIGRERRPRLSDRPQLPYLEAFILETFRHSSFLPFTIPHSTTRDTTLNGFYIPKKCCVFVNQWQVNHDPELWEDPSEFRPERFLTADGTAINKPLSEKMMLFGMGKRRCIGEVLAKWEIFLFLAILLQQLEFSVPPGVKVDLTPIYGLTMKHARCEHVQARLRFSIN

Data set [9] is described as follows: cells. In kind it is functional.
Data set [10] deals with Large T antigen (Simian virus 40, UniProt P03070). In kind it is functional, Betapolyomavirus macacae.
In data set [11] the target is T3, Rac GTPase-activating protein 1 (Homo sapiens, UniProt Q9H0H5).
T3 sequence (Q9H0H5 whole entry): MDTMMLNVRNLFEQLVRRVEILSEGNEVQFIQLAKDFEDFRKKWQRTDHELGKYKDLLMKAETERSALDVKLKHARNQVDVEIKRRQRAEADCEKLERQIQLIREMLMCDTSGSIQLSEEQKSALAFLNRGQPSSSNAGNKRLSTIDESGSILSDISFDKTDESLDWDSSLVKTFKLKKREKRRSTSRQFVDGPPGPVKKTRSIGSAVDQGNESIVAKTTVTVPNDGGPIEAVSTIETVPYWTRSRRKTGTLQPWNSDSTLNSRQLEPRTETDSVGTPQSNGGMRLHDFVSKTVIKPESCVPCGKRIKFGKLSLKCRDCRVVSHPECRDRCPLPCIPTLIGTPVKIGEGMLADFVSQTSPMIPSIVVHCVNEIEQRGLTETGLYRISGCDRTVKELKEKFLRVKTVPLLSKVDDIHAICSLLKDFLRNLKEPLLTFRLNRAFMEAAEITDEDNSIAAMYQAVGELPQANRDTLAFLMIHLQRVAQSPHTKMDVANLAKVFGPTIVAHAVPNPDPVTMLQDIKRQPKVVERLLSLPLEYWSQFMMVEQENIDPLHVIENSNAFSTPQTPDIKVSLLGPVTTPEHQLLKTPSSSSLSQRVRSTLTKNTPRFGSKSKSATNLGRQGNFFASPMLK
The experiment in a line: blockers of MgcRacGAP-driven Rac1 GTP hydrolysis – biochemical, ADP Hunter fluorescence, primary and confirmatory, confirmation (AID 624330). Format: functional.

Data set [12] deals with T4, High affinity choline transporter 1 (Homo sapiens, UniProt Q9GZV3).
T4 sequence (Q9GZV3 whole entry): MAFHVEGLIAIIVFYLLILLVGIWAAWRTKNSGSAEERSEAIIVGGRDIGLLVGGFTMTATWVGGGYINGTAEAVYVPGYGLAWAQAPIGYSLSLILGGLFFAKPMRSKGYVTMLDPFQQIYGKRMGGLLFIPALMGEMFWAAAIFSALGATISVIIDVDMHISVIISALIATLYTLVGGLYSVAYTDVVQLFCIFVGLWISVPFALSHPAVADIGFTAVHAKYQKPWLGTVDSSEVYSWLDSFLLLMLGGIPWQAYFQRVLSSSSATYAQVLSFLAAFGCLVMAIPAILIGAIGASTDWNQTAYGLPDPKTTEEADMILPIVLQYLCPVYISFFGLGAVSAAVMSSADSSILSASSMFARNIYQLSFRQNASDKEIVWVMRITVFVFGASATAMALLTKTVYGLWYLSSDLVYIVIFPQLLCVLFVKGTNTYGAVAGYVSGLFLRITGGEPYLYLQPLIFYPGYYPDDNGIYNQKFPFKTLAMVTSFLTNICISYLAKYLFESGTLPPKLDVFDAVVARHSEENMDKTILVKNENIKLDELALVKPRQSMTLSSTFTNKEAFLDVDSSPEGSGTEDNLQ
The experiment in a line: human choline transporter blockers, potency – cell-based, 5-point CRC, membrane potential dye, dose response (AID 504840). In kind it is functional.

Data set [13] is described as follows: viability of uninfected HEp-2 cells – cell-based, HTS, cytotoxicity control for RSV inhibitor project, dose response (AID 2410). Format: functional. Conditions: human respiratory syncytial virus.
A short description of data set [14]: cells. In kind it is functional, cell-based.
In data set [15] the target is T5, Nuclear receptor subfamily 0 group B member 1 (Homo sapiens, UniProt P51843).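 Also: HEK293T cells transfected with SF-1 and DAX-1 plus StAR promoter luciferase reporter.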
T5 sequence (P51843 whole entry): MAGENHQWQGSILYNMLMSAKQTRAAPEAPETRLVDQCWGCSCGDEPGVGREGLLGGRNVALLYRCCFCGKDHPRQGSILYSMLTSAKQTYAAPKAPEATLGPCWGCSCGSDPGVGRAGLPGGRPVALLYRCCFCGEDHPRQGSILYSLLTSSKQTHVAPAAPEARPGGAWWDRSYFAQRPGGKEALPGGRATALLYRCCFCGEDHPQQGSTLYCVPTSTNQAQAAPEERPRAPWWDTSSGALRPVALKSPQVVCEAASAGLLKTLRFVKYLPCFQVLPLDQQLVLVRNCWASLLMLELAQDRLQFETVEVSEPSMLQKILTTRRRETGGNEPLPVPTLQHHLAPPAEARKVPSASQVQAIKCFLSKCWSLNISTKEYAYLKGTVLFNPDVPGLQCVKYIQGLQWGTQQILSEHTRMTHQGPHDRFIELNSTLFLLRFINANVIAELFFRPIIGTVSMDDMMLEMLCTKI
Format: functional, cell-based.

In data set [16] the target is Glyceraldehyde-3-phosphate dehydrogenase (Homo sapiens, UniProt P04406).

One may read the IC50 as the concentration that gives 50% inhibition. As a reminder, the GI50 is the concentration that inhibits growth by half. The term AC50 denotes the midpoint of the concentration-response curve, whichever way the signal moves. In general, CC50 refers to the concentration that lowers cell viability or growth by half.

Chain of Cytochrome P450 3A4 (P08684 whole entry): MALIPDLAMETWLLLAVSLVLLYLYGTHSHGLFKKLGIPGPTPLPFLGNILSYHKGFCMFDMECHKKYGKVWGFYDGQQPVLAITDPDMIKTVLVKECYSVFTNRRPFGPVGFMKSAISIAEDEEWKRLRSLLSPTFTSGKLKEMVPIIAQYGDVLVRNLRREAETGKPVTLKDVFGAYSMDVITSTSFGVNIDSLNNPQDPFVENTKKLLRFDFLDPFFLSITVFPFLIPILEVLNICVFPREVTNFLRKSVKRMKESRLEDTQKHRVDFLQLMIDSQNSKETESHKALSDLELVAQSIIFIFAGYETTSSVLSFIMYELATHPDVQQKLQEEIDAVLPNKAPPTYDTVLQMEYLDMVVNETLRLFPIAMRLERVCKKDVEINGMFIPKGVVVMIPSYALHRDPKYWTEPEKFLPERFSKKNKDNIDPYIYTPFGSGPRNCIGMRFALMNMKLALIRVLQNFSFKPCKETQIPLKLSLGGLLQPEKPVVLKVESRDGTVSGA
Chain of Cytochrome P450 2D6 (P10635 whole entry): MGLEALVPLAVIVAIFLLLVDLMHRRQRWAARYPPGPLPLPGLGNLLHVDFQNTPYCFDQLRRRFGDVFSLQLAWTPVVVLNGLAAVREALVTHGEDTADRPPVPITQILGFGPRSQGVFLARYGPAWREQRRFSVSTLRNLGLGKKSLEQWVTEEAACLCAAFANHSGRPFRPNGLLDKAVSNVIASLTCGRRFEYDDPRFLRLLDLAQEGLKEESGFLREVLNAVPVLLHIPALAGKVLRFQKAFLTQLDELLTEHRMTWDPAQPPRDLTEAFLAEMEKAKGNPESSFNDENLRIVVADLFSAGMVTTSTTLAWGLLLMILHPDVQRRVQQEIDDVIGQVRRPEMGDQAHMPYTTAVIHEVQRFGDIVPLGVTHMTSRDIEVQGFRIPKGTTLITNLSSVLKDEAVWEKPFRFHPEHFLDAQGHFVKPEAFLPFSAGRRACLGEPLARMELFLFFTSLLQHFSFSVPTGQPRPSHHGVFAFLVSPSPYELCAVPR
Chain of Large T antigen (P03070 whole entry): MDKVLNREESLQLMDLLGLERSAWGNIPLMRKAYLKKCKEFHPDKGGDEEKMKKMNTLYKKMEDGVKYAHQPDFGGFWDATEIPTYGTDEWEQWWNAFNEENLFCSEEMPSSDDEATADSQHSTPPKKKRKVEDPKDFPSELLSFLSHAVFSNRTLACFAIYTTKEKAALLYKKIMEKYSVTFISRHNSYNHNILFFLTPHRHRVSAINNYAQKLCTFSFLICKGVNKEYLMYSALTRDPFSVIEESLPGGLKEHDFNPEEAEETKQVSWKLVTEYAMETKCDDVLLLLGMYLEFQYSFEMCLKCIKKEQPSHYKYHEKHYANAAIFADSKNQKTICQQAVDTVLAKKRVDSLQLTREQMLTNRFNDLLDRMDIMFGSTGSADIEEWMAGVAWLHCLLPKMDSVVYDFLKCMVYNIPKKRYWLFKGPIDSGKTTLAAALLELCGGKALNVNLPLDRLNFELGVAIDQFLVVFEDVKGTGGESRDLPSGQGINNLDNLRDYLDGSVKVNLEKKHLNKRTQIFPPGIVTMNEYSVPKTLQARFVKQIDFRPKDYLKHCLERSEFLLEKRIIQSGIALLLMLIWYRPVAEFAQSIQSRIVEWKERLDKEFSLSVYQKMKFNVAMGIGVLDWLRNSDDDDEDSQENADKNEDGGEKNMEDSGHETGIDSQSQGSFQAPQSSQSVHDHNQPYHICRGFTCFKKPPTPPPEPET
Chain of Cytochrome P450 2C19 (P33261 whole entry): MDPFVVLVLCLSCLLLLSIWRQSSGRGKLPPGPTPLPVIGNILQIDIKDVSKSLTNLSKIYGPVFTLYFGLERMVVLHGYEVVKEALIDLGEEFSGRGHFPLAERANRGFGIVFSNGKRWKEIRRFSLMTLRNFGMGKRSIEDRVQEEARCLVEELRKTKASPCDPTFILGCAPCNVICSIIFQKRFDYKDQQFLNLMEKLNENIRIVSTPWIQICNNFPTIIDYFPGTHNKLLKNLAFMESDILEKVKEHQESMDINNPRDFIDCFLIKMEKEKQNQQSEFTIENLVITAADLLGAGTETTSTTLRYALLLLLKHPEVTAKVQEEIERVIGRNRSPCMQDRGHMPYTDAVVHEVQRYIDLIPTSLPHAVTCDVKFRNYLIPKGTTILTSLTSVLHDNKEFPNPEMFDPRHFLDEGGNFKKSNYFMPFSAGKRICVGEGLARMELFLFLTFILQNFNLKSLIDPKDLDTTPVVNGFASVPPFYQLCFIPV
Chain of Glyceraldehyde-3-phosphate dehydrogenase (P04406 whole entry): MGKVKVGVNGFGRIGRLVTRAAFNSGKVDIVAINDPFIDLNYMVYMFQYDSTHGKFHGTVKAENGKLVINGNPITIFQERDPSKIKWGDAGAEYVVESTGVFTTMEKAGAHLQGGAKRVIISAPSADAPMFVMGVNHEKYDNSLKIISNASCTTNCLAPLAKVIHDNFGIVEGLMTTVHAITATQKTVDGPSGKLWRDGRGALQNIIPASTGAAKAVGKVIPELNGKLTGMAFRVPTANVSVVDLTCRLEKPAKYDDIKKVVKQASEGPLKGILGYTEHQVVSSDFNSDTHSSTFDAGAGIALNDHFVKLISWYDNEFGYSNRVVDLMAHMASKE

In the case of `CC(C)Cn1c(-c2ccc(Br)cc2)cnc1S`, the IC50 in data set [1] was 12.1 µM (active).

Turning to `Nc1ccn([C@@H]2C=C(CO)[C@@H](O)[C@H]2O)c(=O)n1`, the concentration for 50% growth inhibition (GI50) in data set [2] is 0.0619 µM (active); in data set [3], 0.104 µM (active); in [4], 0.0752 µM (active).

Regarding `CC(=O)NC1=C[C@@H]([C@H]2COC(C)(C)O2)OC1=O`, the GI50 in data set [2], in data set [3] and in data set [4] was > 100 µM (inactive) each time.

On to `O=C(c1cccc(F)c1)N1CCC2(CC1)CCN(c1ncccn1)CC2`, for which the concentration at half-maximal activity (AC50) was 39.8 µM (inconclusive) in data set [5] (read-out: AC50), 15.8 µM (inconclusive) in data set [6], “inconclusive” in [7] and 10 µM (inconclusive) in [8].

In the case of `Cc1ccc(-c2nnc(C)c(N3CCCC3)n2)cc1`, the IC50 in [9] was 13.2 µM (active).

With `CCCC(=O)Nc1nc2n(n1)C(c1ccccc1)CC(=O)N2` (configuration not stated), in data set [7], the AC50 entry is reported as “inconclusive”.

Regarding `CCOc1ccc(NC(=NCc2ccc3c(c2)OCO3)SC2CC(=O)N(c3ccc(OCC)cc3)C2=O)cc1` (configuration not stated), in data set [1], the IC50 was > 50 µM (not active).

Regarding `O=C1C=C(Nc2ccc(O)cc2)CC(c2ccco2)C1` (configuration not stated), the IC50 in data set [10] was 9.14 µM (active); in [11] it was 19.6 µM (active).

`CCCCOc1ccc(OCCCCCCCCCC[N+](C)(C)C)cc1`: the GI50 in [2] is 7.05 µM (inactive); in data set [3], 1.61 µM (inactive); in data set [4], 0.94 µM (active).

As to `FC(F)(F)c1ccccc1-c1cc(NCc2ccccc2)ncn1`, the AC50 in [6] is 39.8 µM (inconclusive); in data set [7], “inconclusive”.

On to `Nc1[nH]cnc2ncnc1-2` [ADENINE], for which the GI50 in [2] was 79.3 µM (inactive); in [3], 213 µM (inactive); in data set [4], 64.9 µM (inactive).

Turning to `CCC(CC)C(=O)c1c[nH]c(C(=O)NCCCN2CCOCC2)c1`, the figures for the concentration at half-maximal activity (AC50) entry in data set [7] and in data set [8] were “inconclusive” and 25.1 µM (inconclusive), respectively.

As for `C=C(OC1C(C)=C2C(C1OC(=O)CCCCCCC)C(C)(OC(C)=O)CC(OC(=O)CCC)C1(O)C2OC(=O)C1(C)O)/C(C)=C/C` (configuration not stated), the GI50 in data set [2] is 0.0251 µM (active); in data set [3], 0.0125 µM (active); in data set [4], 0.0125 µM (active).

With `CSc1nc(NC2OCC(O)C(O)C2O)c(N)c(=O)[nH]1` (configuration not stated), the GI50 in data set [2], in [3] and in data set [4] was > 100 µM (inactive) in each case.

Take `Cn1c(-c2ccccc2O)cc2ccccc21`: the half-maximal inhibitory concentration (IC50) in data set [12] was 13.2 µM (active).

Regarding `CCCc1cc2c(=O)c(-c3ccccn3)c(C)oc2cc1O`, the half-inhibitory concentration (IC50) in data set [12] is 12.3 µM (active).

Regarding `O=C(c1ccc2c(c1)OCCO2)C1CCN(S(=O)(=O)c2ccccc2F)CC1`, the AC50 in data set [6] is 0.0316 µM (inconclusive); in data set [7], “inconclusive”; in data set [8] it was 5.01 µM (inconclusive). For the same compound, the CC50 in data set [13] is > 50 µM (active).

Take `CN1CCCC(CC2Oc3ccccc3Sc3ccccc32)C1` (configuration not stated): in data set [12], the IC50 was 15.8 µM (active).

In the case of `Cc1cc(NC(=O)NC(=O)c2ccccc2F)no1`, the IC50 in data set [14] and in [15] was > 67.5 µM (inactive) in each case.

Take `CCN1CCCC1CNC(=O)C(=O)Nc1ccc(OC)cc1` (configuration not stated): the AC50 entry in data set [5] and in data set [7] was “inconclusive” each time.

Consider `CN1CCN(C(=O)c2ccc3c(Cl)c4c(nc3c2)CCCC4)CC1`, for which the IC50 in data set [14] and in [15] was > 67.6 µM (inactive) throughout.

As to `CN(C)C1=C(Cl)C(=O)N(c2ccc(Cl)nc2)C1=O`, the IC50 in [16] was > 50 µM (inconclusive).

As for `CN(C)C(=O)c1c(-c2ccccc2)oc2ccc(O)cc12`, the half-inhibitory concentration (IC50) in data set [10] is 46.6 µM (active).

With `COc1cc(OC)c2c(-c3cccc(-c4ccc(NC(C)=O)cc4)c3)cc(=O)oc2c1`, the IC50 in data set [14] and in data set [15] was > 67.5 µM (inactive) in each case.

Regarding `O=C1C(Cl)=C(N2CCN(c3ccccc3)CC2)C(=O)N1c1ccc(Cl)nc1`, the 50% inhibitory concentration (IC50) in data set [16] is > 50 µM (inconclusive).

Consider `Oc1ccc(Br)cc1/C=N/c1ccc(Cl)cc1`, for which the IC50 in data set [1] is listed as 43.8 µM (not active).

For `CN(C)c1ccc(NS(=O)(=O)c2cccc(Cl)c2)cc1`, in [10], the 50% inhibitory concentration (IC50) is 28.7 µM (active).

With `Cc1ccc(C)c(-c2nc3ccc(N)cc3[nH]2)c1`, the IC50 in [10] was 83.7 µM (active).

With `COc1cc(/C=C(\C#N)c2nc3ccccc3n2C)cc(OC)c1O`, the IC50 in [10] is 9.81 µM (active).

For the compound `Cc1c2c(cc3c1[nH]c1ccccc13)C=NCC2`, the GI50 in data set [2] is 8 µM (inactive); in data set [3], 6.98 µM (inactive); in data set [4], 6.93 µM (inactive).

`N=C(N)Nc1ncccc1[N+](=O)[O-]`: the GI50 in data set [2] was 32.9 µM (inactive); in [3] it was > 100 µM (inactive); in data set [4] it was 40.2 µM (inactive).

With `O=C(Nc1cccc(F)c1)N1CC2(CCN(C(=O)Oc3ccccc3)CC2)C1`, the AC50 entry in [7] was “inconclusive”; in [8], 12.6 µM (inconclusive).
